In patent publication US20260297080A1, “BICYCLIC COMPOUNDS AS CDK INHIBITORS” (BeOne Medicines I GmbH, priority 2022, published 2026):

Experiments:
CDK2/Cyclin E1 = CDK2/Cyclin E1 (Homo sapiens, UniProt P24941); assay: CDK2/Cyclin E1 Biochemical Assay (TR-FRET), 0.060 mM ATP; settings: 0.15 μM Rb (Ser780)-biotin substrate, pH7.0, 60 min preincubation, 120 min reaction, room temperature
Experimental: (§1) CDK2/Cyclin E1 and CDK1/Cyclin B1 Biochemical Assays
(§2) Compounds disclosed herein were tested for inhibition of CDK2/Cyclin E1 or CDK1/Cyclin B1 kinase in an assay based on the time-resolved fluorescence-resonance energy transfer (TR-FRET) methodology. The assay was carried out in 384-well low volume black plates in a reaction mixture containing CDK2/Cyclin E1 or CDK1/Cyclin B1, 0.060 mM ATP for CDK2/Cyclin E1 or 0.015 mM ATP for CDK1/Cyclin B1, 0.15 μM Rb (Ser780)-biotin substrate and 0-10 μM compound in buffer containing 50 mM HEPES pH7.0, 0.02% NaN3, 0.01% BSA, 0.1 mM Orthovanadate, 50 mM MgCl2, 1 mM DTT and 0.005% Tween-20. The kinase was incubated with compound for 60 minutes at room temperature and the reaction was initiated by the addition of ATP and Rb (Ser780)-biotin substrate. After reaction at room temperature for 120 minutes, an equal volume of stop/detection solution was added according to the manufacture's instruction (Cisbio Bioassays). The stop/detection solution contained Streptavidin-XL665 and Anti-pRb (Ser780) mAb-Eu Cryptate in Detection buffer (Cisbio Bioassays). Plates were incubated at room temperature for 60 minutes, and the TR-FRET signals (ex337 nm, em665 nm/620 nm) were recorded on a PHERAstar FSX plate reader (BMG Labtech). The inhibition percentage of CDK2/Cyclin E1 or CDK1/Cyclin B1 kinase activity in presence of increasing concentrations of compounds was calculated based on the ratio of fluorescence at 665 nm to that at 620 nm. The IC50 for each compound was derived from fitting the data to the four-parameter logistic equation by Dotmatics.

CDK1/Cyclin B1 = CDK1/Cyclin B1 (Homo sapiens, UniProt P06493); assay: CDK1/Cyclin B1 Biochemical Assay (TR-FRET), 0.015 mM ATP; settings: 0.15 μM Rb (Ser780)-biotin substrate, pH7.0, 60 min preincubation, 120 min reaction, room temperature
CDK1/Cyclin B1, sequence (P06493 whole entry): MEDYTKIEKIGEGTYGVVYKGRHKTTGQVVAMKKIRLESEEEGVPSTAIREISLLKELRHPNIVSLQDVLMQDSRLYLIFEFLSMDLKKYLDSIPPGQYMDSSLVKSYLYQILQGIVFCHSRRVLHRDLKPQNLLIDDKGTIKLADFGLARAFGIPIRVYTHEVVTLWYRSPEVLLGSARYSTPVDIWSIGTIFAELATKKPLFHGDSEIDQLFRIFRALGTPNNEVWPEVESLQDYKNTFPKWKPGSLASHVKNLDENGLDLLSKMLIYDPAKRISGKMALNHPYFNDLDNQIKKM
CDK1/Cyclin B1, sequence (P14635 whole entry partner): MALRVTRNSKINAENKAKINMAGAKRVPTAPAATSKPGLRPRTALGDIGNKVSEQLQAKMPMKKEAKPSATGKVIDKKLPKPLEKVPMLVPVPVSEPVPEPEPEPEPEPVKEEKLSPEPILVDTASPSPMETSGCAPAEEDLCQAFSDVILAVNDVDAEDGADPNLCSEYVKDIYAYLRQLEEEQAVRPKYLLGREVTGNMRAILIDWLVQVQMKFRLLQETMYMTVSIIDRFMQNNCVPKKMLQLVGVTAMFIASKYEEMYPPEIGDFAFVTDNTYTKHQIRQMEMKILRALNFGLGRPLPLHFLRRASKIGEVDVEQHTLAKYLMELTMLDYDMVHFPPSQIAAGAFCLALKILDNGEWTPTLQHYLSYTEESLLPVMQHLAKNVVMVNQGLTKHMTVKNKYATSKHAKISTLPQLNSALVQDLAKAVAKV
Experimental: as §1, §2

SMILES	IC50 (CDK2/Cyclin E1) [nM]	IC50 (CDK1/Cyclin B1) [nM]
CC(C)NC(=O)O[C@H]1CC[C@@H](c2cc(Nc3ccc4c(c3F)CS(=O)(=O)N4C)n[nH]2)C1 (single isomer, unassigned) [Example 255a, cis-3-(3-((4-fluoro-1-methyl-2,2-dioxido-1,3-dihydrobenzo[c]isothiazol-5-yl)amino)-1H-pyrazol-5-yl)cyclopentyl isopropylcarbamate]	2.9	133
CN1c2ccc(Nc3cc([C@@H]4CC[C@H](OC(=O)NC5(C)CCOC5)C4)[nH]n3)c(F)c2CS1(=O)=O (single isomer, unassigned) [Example 349d, cis-3-(3-((4-fluoro-1-methyl-2,2-dioxido-1,3-dihydrobenzo[c]isothiazol-5-yl)amino)-1H-pyrazol-5-yl)cyclopentyl(3-methyltetrahydrofuran-3-yl)carbamate]	1.4	152
COCC(C)NC(=O)O[C@H]1CC[C@@H](c2cc(Nc3ccc4c(c3F)CS(=O)(=O)N4C)n[nH]2)C1 (relative stereo) [Example 331, cis-3-(3-((4-fluoro-1-methyl-2,2-dioxido-1,3-dihydrobenzo[c]isothiazol-5-yl)amino)-1H-pyrazol-5-yl)cyclopentyl(1-methoxypropan-2-yl)carbamate]	3.9	229
CN1Cc2c(ccc(Nc3cc([C@@H]4CC[C@H](OC(=O)N[C@H]5CC[C@@](C)(O)CC5)C4)[nH]n3)c2F)S1(=O)=O (relative stereo) [Example 169, cis-3-(3-((4-fluoro-2-methyl-1,1-dioxido-2,3-dihydrobenzo[d]isothiazol-5-yl)amino)-1H-pyrazol-5-yl)cyclopentyl((1s,4s)-4-hydroxy-4-methylcyclohexyl)carbamate]	7.4	471
O=C(NC1(CO)CC1)O[C@H]1CC[C@@H](c2cc(Nc3ccc4c(c3F)CN(C3CC3)S4(=O)=O)n[nH]2)C1 (relative stereo) [Example 360, cis-3-(3-((2-cyclopropyl-4-fluoro-1,1-dioxido-2,3-dihydrobenzo[d]isothiazol-5-yl)amino)-1H-pyrazol-5-yl)cyclopentyl(1-(hydroxymethyl)cyclopropyl)carbamate]	12	358
CC1(NC(=O)O[C@H]2CC[C@@H](c3cc(Nc4ccc5c(c4F)CS(=O)(=O)N5C4CC4)n[nH]3)C2)CC1 (relative stereo) [Example 277, cis-3-(3-((1-cyclopropyl-4-fluoro-2,2-dioxido-1,3-dihydrobenzo[c]isothiazol-5-yl)amino)-1H-pyrazol-5-yl)cyclopentyl(1-methylcyclopropyl)carbamate]	1.7	36
CC(C)NC(=O)O[C@H]1CC[C@@H](c2cc(Nc3ccc4c(c3F)CN(C3CCN(C)C3)S4(=O)=O)n[nH]2)C1 (relative stereo) [Example 70, cis-3-(3-((4-fluoro-2-(1-methylpyrrolidin-3-yl)-1,1-dioxido-2,3-dihydrobenzo[d]isothiazol-5-yl)amino-1H-pyrazol-5-yl)cyclopentyl isopropylcarbamate]	11	503
CC(NC(=O)O[C@H]1CC[C@@H](c2cc(Nc3ccc4c(c3F)CN(C)S4(=O)=O)n[nH]2)C1)C1COC1 (relative stereo) [Example 337, cis-3-(3-((4-fluoro-2-methyl-1,1-dioxido-2,3-dihydrobenzo[d]isothiazol-5-yl)amino)-1H-pyrazol-5-yl)cyclopentyl(1-(oxetan-3-yl)ethyl)carbamate]	42	1730
CC[C@H](C)NC(=O)O[C@H]1CC[C@@H](c2cc(Nc3cc4c(cc3F)NS(=O)(=O)C4)n[nH]2)C1 (relative stereo) [Example 294, cis-3-(3-((6-fluoro-2,2-dioxido-1,3-dihydrobenzo[c]isothiazol-5-yl)amino)-1H-pyrazol-5-yl)cyclopentyl((S)-sec-butyl)carbamate]	15	359
CC1(NC(=O)O[C@H]2CC[C@@H](c3cc(Nc4ccc5c(c4F)CN(C4COC4)S5(=O)=O)n[nH]3)C2)CC1 (relative stereo) [Example 135, cis-3-(3-((4-fluoro-2-(oxetan-3-yl)-1,1-dioxido-2,3-dihydrobenzo[d]isothiazol-5-yl)amino)-1H-pyrazol-5-yl)cyclopentyl(1-methylcyclopropyl)carbamate]	4.3	320
CN1c2ccc(Nc3cc([C@@H]4CC[C@H](OC(=O)NC5CCC5)C4)[nH]n3)cc2CS1(=O)=O (single isomer, unassigned) [Example 227b, cis-3-(3-((1-methyl-2,2-dioxido-1,3-dihydrobenzo[c]isothiazol-5-yl)amino)-1H-pyrazol-5-yl)cyclopentyl cyclobutylcarbamate]	1.3	45
CC[C@H](C)NC(=O)O[C@@H]1CC[C@H](c2cc(Nc3ccc4c(c3F)CS(=O)(=O)N4)n[nH]2)C1 (single isomer, unassigned) [Example 383a]	1.7	45
CN1c2ccc(Nc3cc([C@@H]4CC[C@H](OC(=O)NCC5COC5)C4)[nH]n3)cc2CS1(=O)=O (relative stereo) [Example 237, cis-3-(3-((1-methyl-2,2-dioxido-1,3-dihydrobenzo[c]isothiazol-5-yl)amino)-1H-pyrazol-5-yl)cyclopentyl(oxetan-3-ylmethyl)carbamate]	46	435
CC(C)NC(=O)O[C@H]1CC[C@@H](c2cc(Nc3cnc4c(c3)CN(C)S4(=O)=O)n[nH]2)C1 (relative stereo) [Example 32, cis-3-(3-((2-methyl-1,1-dioxido-2,3-dihydroisothiazolo[5,4-b]pyridin-5-yl)amino)-1H-pyrazol-5-yl)cyclopentyl isopropylcarbamate]	21	424
CC(C)NC(=O)O[C@H]1CC[C@@H](c2cc(Nc3ccc4c(c3F)CS(=O)(=O)N4CCCO)n[nH]2)C1 (relative stereo) [Example 389, cis-3-(3-((4-fluoro-1-(3-hydroxypropyl)-2,2-dioxido-1,3-dihydrobenzo[c]isothiazol-5-yl)amino)-1H-pyrazol-5-yl)cyclopentyl isopropylcarbamate]	1.3	74
CN1Cc2c(ccc(Nc3cc([C@@H]4CC[C@H](OC(=O)NC5CCC(O)CC5)C4)[nH]n3)c2F)S1(=O)=O (single isomer, unassigned) [Example 167, cis-3-(3-((4-fluoro-2-methyl-1,1-dioxido-2,3-dihydrobenzo[d]isothiazol-5-yl)amino)-1H-pyrazol-5-yl)cyclopentyl(4-hydroxycyclohexyl)carbamate]	9.2	514
CC(C)(CO)NC(=O)O[C@H]1CC[C@@H](c2cc(Nc3ccc4c(c3F)CNS4(=O)=O)n[nH]2)C1 (relative stereo) [Example 329, cis-3-(3-((4-fluoro-1,1-dioxido-2,3-dihydrobenzo[d]isothiazol-5-yl)amino)-1H-pyrazol-5-yl)cyclopentyl(1-hydroxy-2-methylpropan-2-yl)carbamate]	2.7	175
CC1(NC(=O)O[C@H]2CC[C@@H](c3cc(Nc4ccc5c(c4F)CN(CCO)S5(=O)=O)n[nH]3)C2)CC1 (single isomer, unassigned) [Example 128a, cis-3-(3-((4-fluoro-2-(2-hydroxyethyl)-1,1-dioxido-2,3-dihydrobenzo[d]isothiazol-5-yl)amino)-1H-pyrazol-5-yl)cyclopentyl(1-methylcyclopropyl)carbamate]	2.7	192
O=C(O[C@H]1CC[C@@H](c2cc(Nc3ccc4c(c3F)CNS4(=O)=O)n[nH]2)C1)N1CCOCC1 (relative stereo) [Example 373, cis-3-(3-((4-fluoro-1,1-dioxido-2,3-dihydrobenzo[d]isothiazol-5-yl)amino)-1H-pyrazol-5-yl)cyclopentyl morpholine-4-carboxylate]	45	1380
CC1(NC(=O)O[C@H]2CC[C@@H](c3cc(Nc4ccc5c(c4F)CN(CCO)S5(=O)=O)n[nH]3)C2)CC1 (single isomer, unassigned) [Example 128b, cis-3-(3-((4-fluoro-2-(2-hydroxyethyl)-1,1-dioxido-2,3-dihydrobenzo[d]isothiazol-5-yl)amino)-1H-pyrazol-5-yl)cyclopentyl(1-methylcyclopropyl)carbamate]	2.5	96
CC1(NC(=O)O[C@H]2CC[C@@H](c3cc(Nc4ccc5c(c4Cl)CNS5(=O)=O)n[nH]3)C2)CC1 (racemic) [Example 40, cis-3-(3-((4-chloro-1,1-dioxido-2,3-dihydrobenzo[d]isothiazol-5-yl)amino)-1H-pyrazol-5-yl)cyclopentyl(1-methylcyclopropyl)carbamate]	2.3	154
